The text below walks through data of PMC4363092 (Journal of medicinal chemistry, 2014).

Entries after “also recorded” stand apart in the source; their conditions may differ.

One data set concerns the target T1, human NTPDase2 (Homo sapiens, UniProt Q9Y5L3).
T1 sequence (Q9Y5L3 1-495): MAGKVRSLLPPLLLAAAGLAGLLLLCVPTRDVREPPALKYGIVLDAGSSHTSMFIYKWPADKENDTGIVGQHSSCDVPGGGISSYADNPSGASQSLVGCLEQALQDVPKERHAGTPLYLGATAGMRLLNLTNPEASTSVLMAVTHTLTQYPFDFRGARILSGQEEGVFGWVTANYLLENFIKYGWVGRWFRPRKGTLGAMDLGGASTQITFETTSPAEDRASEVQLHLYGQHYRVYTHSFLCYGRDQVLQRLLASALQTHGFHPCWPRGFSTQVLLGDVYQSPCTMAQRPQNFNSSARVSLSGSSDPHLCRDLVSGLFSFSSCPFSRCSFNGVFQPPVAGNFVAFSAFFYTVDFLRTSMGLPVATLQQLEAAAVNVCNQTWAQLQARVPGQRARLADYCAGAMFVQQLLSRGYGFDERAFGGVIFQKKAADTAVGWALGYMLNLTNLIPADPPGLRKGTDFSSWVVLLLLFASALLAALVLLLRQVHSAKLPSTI
The note with it: analogue 100 μM as substrate; activity with 100 μM ATP set as 100%.

Another data set addresses T2, human NTPDase8 (Homo sapiens, UniProt Q5MY95).
T2 sequence (Q5MY95 1-495): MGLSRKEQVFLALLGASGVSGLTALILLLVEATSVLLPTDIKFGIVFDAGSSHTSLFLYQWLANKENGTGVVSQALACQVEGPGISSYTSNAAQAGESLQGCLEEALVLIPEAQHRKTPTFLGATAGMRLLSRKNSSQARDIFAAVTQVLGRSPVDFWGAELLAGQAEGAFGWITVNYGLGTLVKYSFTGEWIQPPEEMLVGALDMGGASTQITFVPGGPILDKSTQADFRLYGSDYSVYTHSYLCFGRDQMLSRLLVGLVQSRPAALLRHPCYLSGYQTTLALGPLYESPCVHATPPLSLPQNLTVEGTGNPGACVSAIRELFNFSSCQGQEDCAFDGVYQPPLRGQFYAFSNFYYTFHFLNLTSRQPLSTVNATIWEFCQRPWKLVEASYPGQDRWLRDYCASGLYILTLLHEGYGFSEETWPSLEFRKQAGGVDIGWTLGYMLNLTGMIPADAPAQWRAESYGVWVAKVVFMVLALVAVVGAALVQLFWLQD
The note with it: analogue 100 μM as substrate; activity with 100 μM ATP set as 100%.

The subject of another data set is human NTPDase1,2,3,8. Description: Inhibition of NTPDase activity, text statements pooled over NTPDase1,2,3,8. Format: biochemical. As to conditions: analogue 100 μM, pooled over four NTPDases.
The next data set addresses T3, TNAP (Homo sapiens, UniProt P05186).
T3 sequence (P05186 18-502 limits assumed): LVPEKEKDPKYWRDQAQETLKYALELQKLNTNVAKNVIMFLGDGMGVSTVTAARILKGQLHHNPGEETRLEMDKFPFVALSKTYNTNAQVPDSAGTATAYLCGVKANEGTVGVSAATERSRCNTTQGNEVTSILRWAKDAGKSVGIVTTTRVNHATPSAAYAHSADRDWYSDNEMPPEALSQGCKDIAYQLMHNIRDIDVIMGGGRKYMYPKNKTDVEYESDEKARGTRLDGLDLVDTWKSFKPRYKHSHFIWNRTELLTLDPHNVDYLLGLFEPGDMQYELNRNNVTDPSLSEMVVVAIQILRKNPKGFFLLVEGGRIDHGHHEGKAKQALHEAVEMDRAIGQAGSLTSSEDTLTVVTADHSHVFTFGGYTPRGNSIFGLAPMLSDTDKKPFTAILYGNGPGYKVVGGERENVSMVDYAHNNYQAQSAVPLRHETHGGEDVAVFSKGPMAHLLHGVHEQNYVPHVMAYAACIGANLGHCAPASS
Description: Inhibition of TNAP activity. Format: biochemical. As to conditions: analogue 100 μM.

The target of a further data set is T4, P2Y11 receptor (Homo sapiens, UniProt Q96G91).
T4 sequence (Q96G91 1-374): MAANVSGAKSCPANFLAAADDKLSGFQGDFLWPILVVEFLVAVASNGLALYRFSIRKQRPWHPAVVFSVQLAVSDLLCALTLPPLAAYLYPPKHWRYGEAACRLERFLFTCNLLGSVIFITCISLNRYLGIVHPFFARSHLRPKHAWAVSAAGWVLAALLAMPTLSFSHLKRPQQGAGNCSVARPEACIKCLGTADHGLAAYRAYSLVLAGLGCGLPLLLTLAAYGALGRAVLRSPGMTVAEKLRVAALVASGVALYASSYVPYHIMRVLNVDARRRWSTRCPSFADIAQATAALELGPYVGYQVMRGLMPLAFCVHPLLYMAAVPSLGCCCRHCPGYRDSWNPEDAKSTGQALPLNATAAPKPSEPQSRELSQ
Description: [Ca2+]i elevation in 1321N1 astrocytoma cells expressing GFP-P2Y11 receptor. Format: cell-based. The note with it: 1321N1 cells; nr = no response up to 10 μM.

The next data set deals with T5, human NTPDase1 (Homo sapiens, UniProt P49961).
T5 sequence (P49961 1-510): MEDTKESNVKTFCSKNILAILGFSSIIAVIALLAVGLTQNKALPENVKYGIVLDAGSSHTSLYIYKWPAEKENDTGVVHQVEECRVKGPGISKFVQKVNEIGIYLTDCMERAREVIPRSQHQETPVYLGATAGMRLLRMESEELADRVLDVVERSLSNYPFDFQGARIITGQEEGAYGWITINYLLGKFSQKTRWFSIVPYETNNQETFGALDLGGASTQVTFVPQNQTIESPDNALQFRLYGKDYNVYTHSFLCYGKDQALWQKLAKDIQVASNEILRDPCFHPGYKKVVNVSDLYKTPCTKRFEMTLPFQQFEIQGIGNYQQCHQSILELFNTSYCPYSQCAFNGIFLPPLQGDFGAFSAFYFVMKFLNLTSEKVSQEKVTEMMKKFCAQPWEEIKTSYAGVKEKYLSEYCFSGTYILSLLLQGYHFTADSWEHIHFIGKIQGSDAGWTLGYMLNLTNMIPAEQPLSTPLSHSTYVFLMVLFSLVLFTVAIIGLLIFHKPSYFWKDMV
Description: Inhibition of NTPDase1 activity. The data set is classed as biochemical. The note with it: analogue 100 μM, substrate ATP 100 μM.

As for `Nc1ncnc2c1ncn2[C@@H]1O[C@H](CO[P@](O)(=S)OP(=O)(O)C(Cl)(Cl)P(=O)(O)O)[C@@H](O)[C@H]1O` [2a], at human NTPDase2, the “relative activity (%) ± SD of ATP hydrolysis, NTPDase2” value is 5.2 ± 0.1%. For the same compound, the “relative activity (%) ± SD of ATP hydrolysis, NTPDase8” value at human NTPDase8 is given as 4.3 ± 0.1%. For the same compound, the “inhibition of ATP hydrolysis by NTPDase1,2,3,8” value in the data set with human NTPDase1,2,3,8 is recorded as “did not interfere”. In addition, the “inhibition of TNAP” value on TNAP is 8–17%. For the same compound, the “EC50 ± SEM (μM), [Ca^2+]i elevation, P2Y11” value on P2Y11 receptor was “not agonists; also recorded: inactive; also recorded: not active, nr ^c”.
With `Nc1ncnc2c1ncn2[C@@H]1O[C@H](COP(=O)(O)CP(=O)(O)OP(O)(O)=S)[C@@H](O)[C@H]1O` [compound 3], at human NTPDase2, the “relative activity (%) ± SD of ATP hydrolysis, NTPDase2” value is on record as 4.7 ± 0.2%. In addition, the “relative activity (%) ± SD of ATP hydrolysis, NTPDase8” value at human NTPDase8 turned out to be 5.2 ± 0.2%. Moreover, the “inhibition of TNAP” value against TNAP was 8–17%. Further, the “inhibition (%) ± SD, human NTPDase1” value against human NTPDase1 amounted to 60%.
